# Test results taken from paper PMC12463534, “Exploring the Anticancer Properties of 4-Phenylthiazole-Based Ru(II) and Os(II) Metallacycles Featuring 1-Methylimidazole as N-Donor Functionality” (Bioinorganic Chemistry and Applications, 2025).
# How the values were obtained:
# Solubility in 1% DMF/PBS = test: Solubility in 1% DMF/PBS
# Excerpt: Solubility is an important factor for the application of metallodrugs. DMF was used as solubilizer to allow comparison to the respective chlorido complexes where the usage of DMSO would lead to stable DMSO adducts.
# As the coordinated p-cym and leaving groups are present in all synthesized complexes, we focused on the differently substituted 4-phenylthiazoles for estimated changes in lipophilicity.
# [1] = test system: G4 forming sequences (h-Telo, bcl2, hTERT, Kit1, Kit2) and dsDNA; test: FRET melting assay, G-quadruplex / B-DNA interaction; assay type: binding, human; details: 60 mM potassium cacodylate pH 7.4, 2 h incubation
# Procedure: G4s are DNA secondary motifs that play crucial roles in cancer development. […] The complexes were incubated with different G4 forming sequences: one derived from human telomere-forming (h-Telo) and four corresponding to promoter regions of oncogenes, namely, bcl2, hTERT, Kit1, and Kit2. For comparison, a self-complementary sequence called dsDNA was used to represent B-DNA (Table S2).
# FRET experiments were conducted using an Applied Biosystems QuantStudio 6 PCR cycler in a 96-well format equipped with a FAM (6-carboxyfluorescein) filter. Oligonucleotide stock solutions, labelled with FAM and TAMRA (6-carboxytetramethylrhodamine) probes, were diluted to the desired concentration in a 60-mM potassium cacodylate buffer (pH 7.4). To fold the oligonucleotides into their B-DNA or G4 topologies, the solutions were heated to 95°C for 5 min and then allowed to cool slowly to room temperature overnight. The final concentration of the oligonucleotides was 0.2 μM, with a total volume of 30 μL in each well. Metal complexes were dissolved in DMF to prepare 2 mM stock solutions and further diluted with the buffer, where DMF concentration never exceeded 0.05%. Mixtures of oligonucleotides and metal compounds were left at room temperature for 2 h. Data were collected twice, each time in duplicate, over a temperature range of 25°C–95°C, with a ramp of 1°C every 30 s. FAM emission data were normalized from 0 to 1 to compare different datasets. After data normalization, we extrapolated the T1/2 values, i.e., the temperature at which normalized FAM emission is 0.5. The DNA concentration is expressed in strands.
# Balb/c mice = test: Toxicity experiments in Balb/c mice (MTD); details: mice, i.p.
# Procedure: Finally, we were interested in the anticancer activity of selected complexes of our panel in an in vivo mouse setting. Before injecting the compounds in tumor-bearing mice, toxicity experiments were performed. […] On the last day of therapy, most animals were sacrificed and tissues as well as tumors collected. Only four mice (per group) were kept to get information on the impact of the drugs on the overall survival.
# CT26 tumor = test: Anticancer activity in CT26 tumor-bearing BALB/c mice; assay type: in vivo; details: i.p. 50 mg/kg
# Procedure: Figure 5 Anticancer activity of 1c and 3c in vivo. CT26-bearing BALB/c mice were treated i.p. with 50 mg/kg for five consecutive days for 2 weeks. (a) Impact on tumor growth; data are presented as mean ± SEM. […] On Day 15, most of the animals were sacrificed and tissues collected for further analyses. Of each group, 4 animals were kept to assess the impact on overall survival, which is shown in (b). Statistical significance was tested by log-rank test and Mantel–Cox post-test, ^∗p < 0.01. (c) The ruthenium levels measured by ICP-MS in the collected tissue samples of the mice, which were sacrificed 2 h after the last treatment.
# CT26 cells (5 × 10^5 cells in 50-μL serum-free medium) were injected subcutaneously (s.c.) into the right flank of 8–16-week-old BALB/c mice (Envigo Laboratories, San Pietro Al Natisone, Italy). After 3 days, therapy treatment started on five consecutive days for 2 weeks. Animals were treated i.p. with 50 mg/kg 1c and 3c (all dissolved in 10% DMSO in 0.9% NaCl, 12 mice per group). The solvent control animals received 10% DMSO in 0.9% NaCl. Every day, the animals were monitored for the overall health conditions and tumor size was measured regularly by caliper measurement. Tumor volumes (mm^3) were calculated using following formula: length × width^2/2. In the overall survival arm of the experiment, mice were sacrificed by cervical dislocation in the case of a tumor length > 20 mm or tumor ulceration or a decreased body weight of ∼20%. Tumor growth and possible side effects of the treatment were evaluated by daily recording the tumor size by caliper measurement and parameters of the animal's overall health conditions. In the tissue sampling arm at the experiment, the mice were sacrificed by cervical dislocation 2 h after the last treatment. Tumors as well as organs were collected. Additionally, blood was drawn and incubated for 25 min to allow blood clotting. To isolate serum and blood pellets, the blood was centrifuged for 10 min at 17,900 g at room temperature. The supernatant characterized as serum was transferred to a new tube and centrifuged again to remove residual red blood cells. All collected samples were stored at −20°C and further processed for platinum measurements via ICP-MS.
# [2] = test system: HCT116 colorectal cancer cell line (2D); test: Resazurin assay, HCT116 2D (monolayer) culture; details: read-out: IC50 2D, resazurin assay, 96 h exposure
# Procedure: Both models were investigated by the fluorimetric resazurin assay after 96-h exposure.
# HCT116 colorectal carcinoma cells (RRID:CVCL_0291 from ATCC) were cultivated in McCoy's 5A medium, supplemented with 10% heat-inactivated fetal bovine serum and 4 mM L-glutamine.
# For 2D experiments, HCT116 cells were harvested from culture flasks by trypsinization, seeded in 100-μL aliquots into 96-well microculture plates (CytoOne, TC-treated, from Starlab) in densities of 2 × 10^3 cells per well, and incubated for 24 h prior to exposure to the test compounds. […] Stock solutions of test compounds were prepared in DMF, which were then diluted in McCoy's 5A-supplemented medium (not to exceed a final content of 0.5% v/v of organic solvent in the test plates), and serial dilutions were added in aliquots of 100 μL per well. […] After incubation for 4 h, fluorescence was measured with a microplate reader (Bio-Tek, SynergyHT) at a wavelength of 530 nm, additionally using a reference wavelength of 620 nm.
# [3] = test system: A549 lung adenocarcinoma cells; test: MTT assay, inhibition of cancer cell growth, A549; details: read-out: 50% inhibitory concentration A549, exposure time 96 h
# Procedure: (§1) CH1/PA-1 ovarian teratocarcinoma cells (CH1, RRID: CVCL_4992, provided by L. R. Kelland, CRC Center for Cancer Therapeutics, Institute of Cancer Research, Sutton, UK; confirmed by STR profiling as PA-1 ovarian teratocarcinoma cells at Multiplexion, Heidelberg, Germany), SW480 colon adenocarcinoma (RRID: CVCL_0546), and A549 lung adenocarcinoma cells (NCI-H2618, RRID: CVCL_A549; both cell lines were obtained from the American Type Culture Collection (ATCC), Manassas, VA, USA) were grown as adherent cultures in 75-cm^2 culture flasks (Starlab, Hamburg, Germany) by using minimal essential medium (MEM) supplemented with 1 mM sodium pyruvate, 4 mM L-glutamine, 1% (v/v) nonessential amino acids from 100-fold stock (all purchased from Sigma-Aldrich), and 10% heat-inactivated fetal bovine serum (Serana, Pessin, Germany).
# (§2) The 3-(4,5-dimethylthiazol-2-yl)-2,5-diphenyl-2H tetrazolium bromide (MTT, Acros Organics, Geel, Belgium) assay was used to detect the cytotoxicity of the compounds after 96-h incubation. For this purpose, cells were harvested from culture flasks by trypsinization, seeded in 100-μL aliquots into 96-well microculture plates (Starlab, UK) in densities of 1 × 10^3 (CH1/PA-1), 2 × 10^3 (SW480), and 3 × 10^3 (A549) cells per well and incubated for 24 h prior to exposure to the test compounds. Stock solutions of test compounds were prepared in DMF, which were then diluted in MEM (not to exceed a final content of 0.5% v/v of organic solvent in the test plates), and serial dilutions were added in aliquots of 100 μL per well. […] After incubation for 4 h, the medium/MTT mixtures were removed, and the produced formazan crystals were dissolved in 150 μL DMSO per well. Optical densities at 550 nm were measured spectrophotometrically with a ELx808 Absorbance Microplate Reader (Bio-Tek, Winooski, VT, USA) by using a reference wavelength of 690 nm to correct for unspecific absorption.
# [4] = test system: SW480 colon adenocarcinoma cells; test: MTT assay, inhibition of cancer cell growth, SW480; details: read-out: 50% inhibitory concentration SW480, exposure time 96 h
# Procedure: as §1, §2
# [5] = test system: CH1/PA-1 ovarian teratocarcinoma cells; test: MTT assay, inhibition of cancer cell growth, CH1/PA-1; details: read-out: 50% inhibitory concentration CH1, exposure time 96 h
# Procedure: as §1, §2
# [6] = Stability and reactivity in aqueous solution (1H-NMR, UV-vis)
# Procedure: The exact concentration of the metal complex stock solutions was calculated on weight-in-volume basis. Complexes were dissolved in water in 1–5 mM concentration.
# The path length was 1 cm.
# ^1H-NMR spectroscopic studies were carried out on a Bruker FT-NMR spectrometer AV NEO 500.10 MHz and a Bruker Avance III HD Ascend 500 Plus instrument. All ^1H-NMR spectra were recorded using a standard Bruker noesygppr1d pulse sequence to suppress water resonance. […] Samples contained 10% (v/v) D2O with a complex concentration of ca. 1 mM. Samples were prepared in pH 1.3 aqueous HCl solution or in pH 7.4 PBS.
structure (smiles),measurement,setting,value
"Cc1ccc(C(C)C)cc1.Cn1cc[n+]([Ru-]2[c]3cc(S(C)(=O)=O)ccc3-c3csc[n+]32)c1.O=[N+]([O-])[O-] [Compound 3c, [((3-κN)-1-Methylimidazole)(4-(4-(methylsulfonyl)phenyl)thiazolato-κN,κC2′)(η^6-p-cymene)ruthenium(II)] Nitrate]",Solubility,Solubility in 1% DMF/PBS,24.6 mM
same,Stabilization of oligonucleotides (G4s or B-DNA),[1],No stabilization
same,Tolerated dose,Balb/c mice,at least 50 mg/kg
same,Impact on overall survival,"CT26 tumor; 4 mice per group, log-rank test",significantly prolonged overall survival
same,Impact on tumor volume (anticancer activity),"CT26 tumor; 5 times a week for two weeks, did not reach statistical significance",slight anticancer activity
same,Survival of one animal,CT26 tumor; one animal,48 days
same,IC50,[2],> 200 µM
same,IC50,[3],> 200 µM
same,IC50,[4],> 200 µM
same,IC50,[5],102 ± 11 µM
same,Sensitivity to chloride: replacement of coordinated MeIm,"[6]; 3 M KCl, pH 7.4, UV-vis",could not replace coordinated MeIm
same,Decomposition at pH 7.4,"[6]; PBS pH 7.4, 1 mM complex, 25°C, within 6 days, 1H-NMR",no decomposition
same,Behaviour in acidic solution,"[6]; pH = 1.0 or 1.3 (HCl), followed in time up to 6 days, 1H-NMR/UV-vis",decomposition
same,Spectral change at pH 10.0,"[6]; pH = 10.0 (NaOH), within 2 days, UV-vis",no spectral change
